Laboratory results reported in US12077503B2, “Substituted cyclic amides and their use as herbicides” (FMC CORPORATION, priority 2015, dated 2024).

Tests used:
Assay type in all cases: in vivo
[1] = tested on: ryegrass, Italian (Italian ryegrass, Lolium multiflorum); test: Test A preemergence; details: for Plant response rating, Ryegrass, Italian: 125 g ai/ha, preemergence, 0 to 100 scale (0 no effect, 100 complete control); for Ryegrass, Italian plant response rating (0 to 100 scale, 0 is no effect, 100 is complete control): Preemergence, 500 g ai/ha, visual injury approx. 10 d
How it was run: (§1)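 Seeds sprayed preemergence with a directed soil spray, or plants at 2 to 10 cm height and one- to two-leaf stage sprayed postemergence, with test chemicals in a non-phytotoxic solvent mixture containing surfactant, in loam soil–sand blend. Injury rated visually against untreated controls after about 10 d in greenhouse, 0 (no effect) to 100 (complete control).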

Kochia (Kochia scoparia) [2] = test: Test A preemergence; details: for Plant response rating, Kochia: 125 g ai/ha, preemergence, 0 to 100 scale (0 no effect, 100 complete control); for Kochia plant response rating (0 to 100 scale, 0 is no effect, 100 is complete control): Preemergence, 500 g ai/ha, visual injury approx. 10 d
How it was run: as §1

[3] = tested on: barnyardgrass (Echinochloa crus-galli); test: Test A preemergence; details: for Plant response rating, Barnyardgrass: 125 g ai/ha, preemergence, 0 to 100 scale (0 no effect, 100 complete control); for Barnyardgrass plant response rating (0 to 100 scale, 0 is no effect, 100 is complete control): Preemergence, 500 g ai/ha, visual injury approx. 10 d
How it was run: as §1

[4] = tested on: giant foxtail (Setaria faberii); test: Test A preemergence; details: for Plant response rating, Foxtail, Giant: 125 g ai/ha, preemergence, 0 to 100 scale (0 no effect, 100 complete control); for Foxtail, Giant plant response rating (0 to 100 scale, 0 is no effect, 100 is complete control): Preemergence, 500 g ai/ha, visual injury approx. 10 d
How it was run: as §1

[5] = tested on: ragweed (common ragweed, Ambrosia elatior); test: Test A preemergence; details: for Plant response rating, Ragweed: 125 g ai/ha, preemergence, 0 to 100 scale (0 no effect, 100 complete control); for Ragweed plant response rating (0 to 100 scale, 0 is no effect, 100 is complete control): Preemergence, 500 g ai/ha, visual injury approx. 10 d
How it was run: as §1

[6] = tested on: pigweed (Amaranthus retroflexus); test: Test A preemergence; details: for Plant response rating, Pigweed: 125 g ai/ha, preemergence, 0 to 100 scale (0 no effect, 100 complete control); for Pigweed plant response rating (0 to 100 scale, 0 is no effect, 100 is complete control): Preemergence, 500 g ai/ha, visual injury approx. 10 d
[7] = tested on: ryegrass, Italian (Italian ryegrass, Lolium multiflorum); test: Test A postemergence; details: postemergence; for Ryegrass, Italian plant response rating: 125 g ai/ha, visual injury rating on 0 to 100 scale (0 no effect, 100 complete control), approx. 10 d; for Plant response rating, Ryegrass, Italian: 500 g ai/ha, 0 to 100 scale, 0 no effect, 100 complete control
How it was run: as §1

[8] = tested on: wheat (Triticum aestivum); test: Test A postemergence; details: postemergence; for Wheat plant response rating: 125 g ai/ha, visual injury rating on 0 to 100 scale (0 no effect, 100 complete control), approx. 10 d; for Plant response rating, Wheat: 500 g ai/ha, 0 to 100 scale, 0 no effect, 100 complete control
How it was run: as §1

Kochia (Kochia scoparia) [9] = test: Test A postemergence; details: postemergence; for Kochia plant response rating: 125 g ai/ha, visual injury rating on 0 to 100 scale (0 no effect, 100 complete control), approx. 10 d; for Plant response rating, Kochia: 500 g ai/ha, 0 to 100 scale, 0 no effect, 100 complete control
How it was run: as §1

[10] = tested on: Galium (catchweed bedstraw, Galium aparine); test: Test A postemergence; details: postemergence; for Galium plant response rating: 125 g ai/ha, visual injury rating on 0 to 100 scale (0 no effect, 100 complete control), approx. 10 d; for Plant response rating, Galium: 500 g ai/ha, 0 to 100 scale, 0 no effect, 100 complete control
How it was run: as §1

[11] = tested on: blackgrass (Alopecurus myosuroides); test: Test A postemergence; details: postemergence; for Blackgrass plant response rating: 125 g ai/ha, visual injury rating on 0 to 100 scale (0 no effect, 100 complete control), approx. 10 d; for Plant response rating, Blackgrass: 500 g ai/ha, 0 to 100 scale, 0 no effect, 100 complete control
How it was run: as §1

[12] = tested on: barnyardgrass (Echinochloa crus-galli); test: Test A postemergence; details: postemergence; for Barnyardgrass plant response rating: 125 g ai/ha, visual injury rating on 0 to 100 scale (0 no effect, 100 complete control), approx. 10 d; for Plant response rating, Barnyardgrass: 500 g ai/ha, 0 to 100 scale, 0 no effect, 100 complete control
How it was run: as §1

[13] = tested on: giant foxtail (Setaria faberii); test: Test A postemergence; details: postemergence; for Foxtail, Giant plant response rating: 125 g ai/ha, visual injury rating on 0 to 100 scale (0 no effect, 100 complete control), approx. 10 d; for Plant response rating, Foxtail, Giant: 500 g ai/ha, 0 to 100 scale, 0 no effect, 100 complete control
How it was run: as §1

[14] = tested on: ragweed (common ragweed, Ambrosia elatior); test: Test A postemergence; details: postemergence; for Ragweed plant response rating: 125 g ai/ha, visual injury rating on 0 to 100 scale (0 no effect, 100 complete control), approx. 10 d; for Plant response rating, Ragweed: 500 g ai/ha, 0 to 100 scale, 0 no effect, 100 complete control
How it was run: as §1

corn (Zea mays) = test: Test A postemergence; details: postemergence; for Corn plant response rating: 125 g ai/ha, visual injury rating on 0 to 100 scale (0 no effect, 100 complete control), approx. 10 d; for Plant response rating, Corn: 500 g ai/ha, 0 to 100 scale, 0 no effect, 100 complete control
How it was run: as §1

[15] = tested on: pigweed (Amaranthus retroflexus); test: Test A postemergence; details: postemergence; for Pigweed plant response rating: 125 g ai/ha, visual injury rating on 0 to 100 scale (0 no effect, 100 complete control), approx. 10 d; for Plant response rating, Pigweed: 500 g ai/ha, 0 to 100 scale, 0 no effect, 100 complete control
How it was run: as §1

[16] = tested on: ducksalad (Heteranthera limosa); test: Test B flooded paddy test; details: Flood, 250 g ai/ha; 0 to 100 scale where 0 is no effect and 100 is complete control; 13 to 15 d
How it was run: (§2)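 Plants at 2-leaf stage flooded to 3 cm above soil, with compounds applied directly to paddy water and that depth maintained. Plants kept in greenhouse 13–15 d. Visual rating versus controls on a 0 (no effect) to 100 (complete control) scale.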

[17] = tested on: barnyardgrass (Echinochloa crus-galli); test: Test B flooded paddy test; details: Flood, 250 g ai/ha; 0 to 100 scale where 0 is no effect and 100 is complete control; 13 to 15 d
How it was run: as §2

rice (Oryra sativa) = test: Test B flooded paddy test; details: Flood, 250 g ai/ha; 0 to 100 scale where 0 is no effect and 100 is complete control; 13 to 15 d
How it was run: as §2

[18] = tested on: sedge, umbrella (small-flower umbrella sedge, Cyperus difformis); test: Test B flooded paddy test; details: Flood, 250 g ai/ha; 0 to 100 scale where 0 is no effect and 100 is complete control; 13 to 15 d
How it was run: as §2

| SMILES | Plant response rating, Ryegrass, Italian [1] | Ryegrass, Italian plant response rating (0 to 100 scale, 0 is no effect, 100 is complete control) [1] | Plant response rating, Kochia (Kochia (Kochia scoparia) [2]) | Kochia plant response rating (0 to 100 scale, 0 is no effect, 100 is complete control) (Kochia (Kochia scoparia) [2]) | Plant response rating, Barnyardgrass [3] | Barnyardgrass plant response rating (0 to 100 scale, 0 is no effect, 100 is complete control) [3] | Plant response rating, Foxtail, Giant [4] | Foxtail, Giant plant response rating (0 to 100 scale, 0 is no effect, 100 is complete control) [4] | Plant response rating, Ragweed [5] | Ragweed plant response rating (0 to 100 scale, 0 is no effect, 100 is complete control) [5] | Plant response rating, Pigweed [6] | Pigweed plant response rating (0 to 100 scale, 0 is no effect, 100 is complete control) [6] | Ryegrass, Italian plant response rating [7] | Plant response rating, Ryegrass, Italian [7] | Wheat plant response rating [8] | Plant response rating, Wheat [8] | Kochia plant response rating (Kochia (Kochia scoparia) [9]) | Plant response rating, Kochia (Kochia (Kochia scoparia) [9]) | Galium plant response rating [10] | Plant response rating, Galium [10] | also measured |
| --- | --- | --- | --- | --- | --- | --- | --- | --- | --- | --- | --- | --- | --- | --- | --- | --- | --- | --- | --- | --- | --- |
| CN1CC(c2ccc(Cl)cc2)C(C(=O)Nc2cccc(F)c2F)C1=O (stereo not drawn) [Compound 434] | 60 | 90 | 70 | 80 | 90 | 90 | 90 | 100 | 50 | 60 | 80 | 90 | 0 | 50 | 20 | 70 | 70 | 70 | 60 | 60 | Blackgrass plant response rating [11]: 50; Plant response rating, Blackgrass [11]: 50; Barnyardgrass plant response rating [12]: 90; Plant response rating, Barnyardgrass [12]: 90; Foxtail, Giant plant response rating [13]: 90; Plant response rating, Foxtail, Giant [13]: 90; Ragweed plant response rating [14]: 20; Plant response rating, Ragweed [14]: 20; Corn plant response rating (corn (Zea mays)): 0; Plant response rating, Corn (corn (Zea mays)): 70; Pigweed plant response rating [15]: 60; Plant response rating, Pigweed [15]: 70; Plant response rating, Ducksalad [16]: 100; Plant response rating, Barnyardgrass [17]: 70; Plant response rating, Rice (rice (Oryra sativa)): 0; Plant response rating, Sedge, Umbrella [18]: 0 |
| CN1CC(c2ccc(F)cc2)C(C(=O)Nc2cccc(F)c2F)C1=O (stereo not drawn) [Compound 438] | 50 | 70 | 70 | 80 | 90 | 100 | 100 | 100 | 60 | 90 | 80 | 90 | 40 | 60 | 30 | 70 | 70 | 70 | 40 | 50 | Blackgrass plant response rating [11]: 40; Plant response rating, Blackgrass [11]: 70; Barnyardgrass plant response rating [12]: 90; Plant response rating, Barnyardgrass [12]: 90; Foxtail, Giant plant response rating [13]: 90; Plant response rating, Foxtail, Giant [13]: 90; Ragweed plant response rating [14]: 0; Plant response rating, Ragweed [14]: 30; Corn plant response rating (corn (Zea mays)): 0; Plant response rating, Corn (corn (Zea mays)): 50; Pigweed plant response rating [15]: 0; Plant response rating, Pigweed [15]: 60; Plant response rating, Ducksalad [16]: 100; Plant response rating, Barnyardgrass [17]: 85; Plant response rating, Rice (rice (Oryra sativa)): 20; Plant response rating, Sedge, Umbrella [18]: 0 |
